Laboratory results from US20250129067A1 (Progentos Therapeutics, Inc., priority 2021, published 2025).
Read-outs that look alike come from different tables or passages of the source.

Columns and labels:
PDGFRα = PDGFRα (Homo sapiens (Human), UniProt P16234); experiment: PDGFRα kinase enzyme assay (Promega PDGFRα Kinase Enzyme System, ADP-Glo); format: biochemical; conditions: 150 uM ATP
In short: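 Purified PDGFRα protein (20 ng) reacted with test compound per the Promega kinase system protocol. ADP formed was measured by ADP-Glo luminescence against a standard curve, giving IC50.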

[1] = system: GPR17+ cells (newly differentiated oligodendrocytes); experiment: In vivo OPC differentiation, GPR17+ cells in brain; conditions: for fold induction at 3 mg/kg: po; for In vivo GPR17+ cells, GPR17 Fold Induction (Over Vehicle): adult female C57BL/6 mice, PO or IP, treatment period 1-3 days, entire brain, fold change over vehicle treated animals
[2] = system: Oligodendrocyte progenitor cells (OPCs); experiment: In vitro OPC differentiation assay, GPR17 expression (immunocytochemistry); conditions: 72 hours; for GPR17 Fold Induction (Over Vehicle; 3 μM): 3 μM (10× concentration, final 0.3 μM), fold change over vehicle; for GPR17 Fold Induction (Over Vehicle; 5 μM): primary rat OPCs, 5 μM (10x; final 0.5 μM per method), percent GPR17+ cells as fold change over vehicle
[3] = 11-point dose response, 10,000 nM to 0.169 nM, BLQ = below limit of quantitation, read-out: IC50 Values on PDGFRα Kinase Inhibition, IC50
[4] = Mus musculus, 24 h, read-out: GPR17 Fold Induction (Over Vehicle)

Sequence of PDGFRα (P16234 24-1089): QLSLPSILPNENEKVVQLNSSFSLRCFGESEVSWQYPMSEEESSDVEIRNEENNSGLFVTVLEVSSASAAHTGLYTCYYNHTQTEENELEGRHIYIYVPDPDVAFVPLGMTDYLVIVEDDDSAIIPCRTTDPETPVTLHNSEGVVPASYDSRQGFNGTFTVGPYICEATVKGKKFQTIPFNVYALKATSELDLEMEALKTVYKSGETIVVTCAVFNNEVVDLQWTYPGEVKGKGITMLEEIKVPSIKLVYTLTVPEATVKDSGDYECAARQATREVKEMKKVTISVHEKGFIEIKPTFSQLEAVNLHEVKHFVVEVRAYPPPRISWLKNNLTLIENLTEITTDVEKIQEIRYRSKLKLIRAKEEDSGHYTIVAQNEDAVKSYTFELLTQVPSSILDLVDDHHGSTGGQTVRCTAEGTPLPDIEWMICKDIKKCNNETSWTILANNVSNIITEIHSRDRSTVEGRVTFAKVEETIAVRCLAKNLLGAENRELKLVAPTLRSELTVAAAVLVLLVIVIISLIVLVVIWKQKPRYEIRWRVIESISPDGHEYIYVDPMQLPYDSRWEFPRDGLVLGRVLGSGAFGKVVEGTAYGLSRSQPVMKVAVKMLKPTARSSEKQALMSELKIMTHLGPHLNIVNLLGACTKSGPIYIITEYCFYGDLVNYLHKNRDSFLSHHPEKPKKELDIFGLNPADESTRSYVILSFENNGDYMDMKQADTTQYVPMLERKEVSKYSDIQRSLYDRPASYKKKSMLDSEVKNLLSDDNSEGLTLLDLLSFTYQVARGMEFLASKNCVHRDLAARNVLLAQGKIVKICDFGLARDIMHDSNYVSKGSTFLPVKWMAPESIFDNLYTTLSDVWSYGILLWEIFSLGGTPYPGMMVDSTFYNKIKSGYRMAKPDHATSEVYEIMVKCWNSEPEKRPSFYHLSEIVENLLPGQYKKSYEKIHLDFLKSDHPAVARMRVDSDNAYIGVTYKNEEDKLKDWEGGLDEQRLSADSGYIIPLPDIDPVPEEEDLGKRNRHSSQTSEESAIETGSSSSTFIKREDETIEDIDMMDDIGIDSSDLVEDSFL

Row | Compound | IC50 (PDGFRα; [3]) [nM] | GPR17 Fold Induction (Over Vehicle; 3 μM) [2] | In vivo GPR17+ cells, GPR17 Fold Induction (Over Vehicle) [1] | other results
1 | CC1CN(c2cnn3cc(-c4cnn(C)c4)ccc23)CCN1C(=O)OC(C)(C)C (stereo not shown) [Compound 238, tert-butyl-2-methyl-4-(6-(1-methyl-1H-pyrazol-4-yl)pyrazolo[1,5-a]pyridin-3-yl)piperazine-1-carboxylate] | 430 | 6.34 |  | fold induction at 3 mg/kg [1, 4]: 1.54
2 | Cn1cc(-c2ccc3c(N4CCN(c5ncc(Cc6ccccn6)cn5)CC4)cnn3c2)cn1 [Compound 250, 6-(1-methyl-1H-pyrazol-4-yl)-3-{4-[5-(pyridine-2-ylmethyl)pyrimidin-2-yl]piperazin-1-yl}pyrazolo[1,5-a]pyridine] | 80.4 | 9.74 |  | fold induction at 3 mg/kg [1, 4]: 6.19
3 | Cn1cc(-c2ccc3c(C4CCN(c5ncc(Cc6ccccc6)cn5)CC4)cnn3c2)cn1 [Compound 63, 3-[1-(5-benzylpyrimidin-2-yl)piperidin-4-yl]-6-(1-methyl-1H-pyrazol-4-yl)pyrazolo[1,5-a]pyridine] | 1100 | 8.97 |  | fold induction at 3 mg/kg [1, 4]: 1.83
4 | [2H]c1c([2H])c(C(OC(=O)N2CCN(c3cnn4cc(-c5cnn(C)c5)ccc34)CC2)C([2H])([2H])[2H])c([2H])c([2H])c1Cl (stereo not shown) [Compound 291, 1-(4-chlorophenyl-2,3,5,6-d4) ethyl-2,2,2-d3 4-(6-(1-methyl-1H-pyrazol-4-yl)pyrazolo[1,5-a]pyridin-3-yl)piperazine-1-carboxylate] | 0.016 | 6.24 |  | fold induction at 3 mg/kg [1, 4]: 6.93
5 | Cn1cc(-c2ccc3c(N4CCN(c5ncc(Cc6ccco6)cn5)CC4)cnn3c2)cn1 [Compound 181, 3-(4-(5-(furan-2-ylmethyl)pyrimidin-2-yl)piperazin-1-yl)-6-(1-methyl-1H-pyrazol-4-yl)pyrazolo[1,5-a]pyridine] | 1860 | 4.87 |  | fold induction at 3 mg/kg [1, 4]: 1
6 | COCCOc1ccc2c(c1)ncn2-c1ccc2cccc(N3CCC(N)CC3)c2n1 [CP-673451, reference compound] |  |  | 3.52 | IC50 (PDGFRα; 20 ng purified PDGFRα, Poly (Glu4Tyr1) substrate, two hours, 11-point dose response, read-out: IC50 Values on PDGFRα Kinase Inhibition): 115 nM; GPR17 Fold Induction (Over Vehicle; 5 μM) [2]: 2.94
7 | C[C@@H](OC(=O)N1CCN(c2cnn3cc(-c4cnn(C)c4)ccc23)CC1)c1cccnc1 [Compound 315, (1R)-1-pyridin-3-ylethyl 4-[6-(1-methyl-1H-pyrazol-4-yl)pyrazolo[1,5-a]pyridin-3-yl]piperazine-1-carboxylate] | 547 | 4.27 |  | fold induction at 3 mg/kg [1, 4]: 1.05
8 | S=C(NCc1ccc2c(c1)OCO2)N1CCN(c2ncnc3c2oc2ccccc23)CC1 [Amuvatinib, amuvatinib, reference compound] |  |  | 2.18 | 
9 | Cc1ccccc1C(OCCN(C)C)c1ccccc1 (stereo not shown) [Orphenadrine] |  |  | 1.07 | 
10 | Cc1[nH]c(/C=C2\C(=O)Nc3ccccc32)c(C)c1CCC(=O)O [Orantinib, orantinib, reference compound] |  |  | 2.43 | 
11 | Cn1cc(-c2cn3c(N4CCN(c5ncc(Cc6ccccc6)cn5)CC4)cnc3cn2)cn1 [Compound 21, 3-[4-(5-benzylpyrimidin-2-yl)piperazin-1-yl]-6-(1-methyl-1H-pyrazol-4-yl)imidazo[1,2-a]pyrazine] |  |  |  | fold induction at 150 mg/kg ([1]; Mus musculus, ip, 24 h, read-out: GPR17 Fold Induction (Over Vehicle)): 1.48
12 | CCN(CC)CCNC(=O)c1c(C)[nH]c(/C=C2\C(=O)Nc3ccc(-c4csc(-c5ccccc5)n4)cc32)c1C [Amcasertib, amcasertib, reference compound] |  |  | 1.49 | 
13 | CN(C[C@@H]1COCCO1)S(=O)(=O)Nc1ccc2ccc3ncc(-c4cnn(C)c4)cc3c(=O)c2c1 [MK-2461, reference compound] |  |  | 1.47 | 
14 | Cc1[nH]c(/C=C2\C(=O)Nc3ccc(F)cc32)c(C)c1C(=O)NC[C@H](O)CN1CCOCC1 [SU-14813, reference compound] |  |  | 2.63 | GPR17 Fold Induction (Over Vehicle; 5 μM) [2]: 4.12
15 | Cn1cc(-c2ccc3c(N4CCN(c5nnc(Cc6ccccc6)s5)CC4)cnn3c2)cn1 [Compound 306, 2-benzyl-5-(4-(6-(1-methyl-1H-pyrazol-4-yl)pyrazolo[1,5-a]pyridin-3-yl)piperazin-1-yl)-1,3,4-thiadiazole] | 2.31 | 4.37 |  | 
16 | Cn1cc(-c2ccc3c(N4CCN(C(=O)OC5CC(F)(F)C5)CC4)cnn3c2)cn1 [Compound 307, 3,3-difluorocyclobutyl 4-[6-(1-methyl-1H-pyrazol-4-yl)pyrazolo[1,5-a]pyridin-3-yl]piperazine-1-carboxylate] | 2150 | 4.20 |  | 
17 | CN(Cc1ccccc1)C(=O)C1CCC(c2cnn3cc(-c4cnn(C)c4)ccc23)C1 (stereo not shown) [Compound 140, N-benzyl-N-methyl-3-(6-(1-methyl-1H-pyrazol-4-yl)pyrazolo[1,5-a]pyridin-3-yl)cyclopentane-1-carboxamide] | > 10000 | 3.54 |  | 
18 | CC(C)(C)OC(=O)N1CCN(c2cnn3cc(C4CCCC4)ccc23)CC1 [Compound 214, tert-butyl 4-(6-cyclopentylpyrazolo[1,5-a]pyridin-3-yl)piperazine-1-carboxylate] | > 10000 | 2.00 |  | 
19 | Cn1cc(-c2ccc3c(N4CCN(C(=O)O[C@@H]5CCc6cc(Cl)ccc65)CC4)cnn3c2)cn1 [Compound 314, (1R)-5-chloro-2,3-dihydro-1H-inden-1-yl 4-[6-(1-methyl-1H-pyrazol-4-yl)pyrazolo[1,5-a]pyridin-3-yl]piperazine-1-carboxylate] | 7550 | 1.64 |  | 
20 | Cn1cc(-c2ccc3c(N4CCN(c5ncc(C(N)c6ccc(F)cc6)cn5)CC4)cnn3c2)cn1 (stereo not shown) [Compound 246, 1-(4-fluorophenyl)-1-(2-{4-[6-(1-methyl-1H-pyrazol-4-yl)pyrazolo[1,5-a]pyridin-3-yl]piperazin-1-yl}pyrimidin-5-yl)methanamine] | 937 | 3.04 |  | 
21 | Cn1cc(-c2ccc3c(N4CCN(c5ncc([C@H](O)[C@@H]6CCCOC6)cn5)CC4)cnn3c2)cn1 [Compound 192, (R)-(2-(4-(6-(1-methyl-1H-pyrazol-4-yl)pyrazolo[1,5-a]pyridin-3-yl)piperazin-1-yl)pyrimidin-5-yl)((R)-tetrahydro-2H-pyran-3-yl)methanol] | 31 | 14.76 |  | 
